Results as given in patent US12251366B1, “Sulforaphane-cysteine for wound healing in diabetic subjects” (KUWAIT UNIVERSITY, priority 2024, dated 2025).

How the values were obtained:
[1] = test system: transforming growth factor beta (TGF-β); assay: TGF-β expression (cardiac fibrosis); format: in vivo
Description: (§1) Therapeutic rational was considered for SFN-Cys effectiveness in the following pathological conditions: Sarcopenia-SFN-Cys increased muscle weight in diabetic mice, see FIGS. 4A and 4B; Cardiac fibrosis-SFN-Cys inhibits transforming growth factor beta (TGF-β) expression, see FIG. 4C; Erectile dysfunction-SFN-Cys increased endothelial nitric oxide activity and expression in corpus cavernosum.

IL-6 = assay: Cytokine ELISA, LPS-stimulated peritoneal macrophages (IL-6); format: cell-based, mouse; settings: LPS 100 ng/mL 6 hours, pre-treatment 1.5 μM
Description: This was exemplified in the current study by the ability of SFN-CYS to inhibit lipopolysaccharide (LPS)-induced peritoneal macrophages and bone marrow-derived macrophages to produce tumor necrosis factor-α (TNF-α) and interlukin-6 (IL-6). TNF-α and IL-6 are two of the major inflammatory mediators that contribute to the pathogenesis of low-grade inflammation; a phenomenon which is commonly associated with the diabetic state. […] Pre-treatment with SFN-Cys inhibited the expression of LPS-induced TNF-α and IL-6 protein at a therapeutic dose of 1.5 μM (FIGS. 1A and 1B).
(§2) Thioglycollate-elicited mouse peritoneal macrophages were prepared from C57BL (8-10 weeks old) and cultured in RPMI 1640 with 10% (v/v) FCS Bone marrow-derived macrophages were generated in RPMI medium containing M-CSF (10 ng/mL) according to previously published procedure. For cytokine ELISA assay, cells were seeded at 5×10^5 in 12-well plates, whereas for mRNA expression, the cells were seeded at […]. LPS and used at a dose of 100 ng/mL. Similarly. SFN-Cys was used at a concentration of 1.5 umol/L.
For cytokine ELISA, supernatants from cultured macrophages were collected in response to treatment with SFN and SFN-Cys for 6 h. The total TNF-α and TL-6 were measured by enzyme-linked immunosorbent assay (ELISA) using kits (R&D system, USA) according to the manufacturer's protocols.

[2] = Toxicity assessment of chronically administered SFN-Cys (body weight, behavior); format: in vivo, mouse; settings: mice, 21 days
Method: (§3) Testing the pharmacodynamic and toxicodynamic properties of SFN-Cys dictated the mixing SFN-Cys with a powdered diet. The estimated dose delivered by this diet was 1.5-2.5 μmol/mouse (n=4). The SFN-Cys diet was stored at 4° C. and the feeders were refilled daily for the duration of the study (21 days). Corresponding animals received food without the drug.
To strengthen this conclusion, extensive measurements were conducted on plasma levels of key parameters of kidney and liver toxicities in addition to the lipid and carbohydrate profiles.
(§4) For dietary treatment with SFN-Cys, the SFN-Cys was mixed with a powdered diet (7.5 mg of SFN-Cys per kg of food). The estimated dose delivered by this diet was about 1.0-1.5 mg/kg. The diet was stored at 4° C. and the feeders were refilled daily. Control animals received diet alone. Body weights were recorded twice a week and at the termination of the study, blood was drawn in EDTA-containing tubes, plasma was collected by centrifugation and stored at −80° C. until analysis.

endothelial nitric oxide = assay: Endothelial nitric oxide activity and expression in corpus cavernosum; format: in vivo
Description: as §1

fibroblasts (CF, DF) [3] = assay: In vitro wound healing repair assay (cell migration); format: cell-based, rat; settings: 1.5 μM, 24 hrs
Method: Successful wound healing necessitates a series of tightly coordinated and overlapping processes including inflammation, new tissue formation and remodeling. Fibroblasts, in response to growth factors-released mostly by macrophages, migrate to the site of injury, where they proliferate and lay down the extracellular matrix (ECM). Consequently, this facilitates cell migration and tissue reconstruction. The effect of a therapeutic concentration of SFN-Cys (1.5 μM) was investigated on the proliferation of fibroblasts isolated from the granulation tissue of control and diabetic wounds. Similarly, the effect of SFN-Cys on cell migration in the in vitro wound closure assay was also considered. […] Accordingly, in vivo wound closure properties of SFN-Cys were examined using an excisional wound healing rat model. SFN-Cys containing Pluronic acid was topically applied to the wound at a dose of 1.5 μmol concentration and the wound closure area was digitally photographed and quantified. Digital photographs were obtained on day-0 through day-7 of post wounding. […] In this context, the wound healing time-course was faster in SFN-Cys containing Pluronic acid than the Pluronic acid alone (FIG. 3C). […]
Fibroblasts (1×10^5/well) were cultured until confluence. […] The closure of the wounded area was calculated using Image J software (NIH). Data are expressed as a percent of wound closure.

[4] = Pain threshold in diabetic rats (diabetic neuropathy); format: in vivo; settings: 5 μmol/rat
Description: as §1

TNF-α = assay: Real-time PCR, LPS-induced TNF-α mRNA in peritoneal macrophages; format: cell-based, mouse; settings: LPS 100 ng/mL, 1.5 umol/L, RT-PCR
Method: Additional tests were conducted to determine whether SFN-Cys also suppresses TNF-α and IL-6 expression at the mRNA level.
as §2
Total RNA from cells or frozen sponge implants was extracted using the Trizol reagent (Invitrogen), and the RNA integrity was verified by agarose gel electrophoresis. Approximately 1 μg of RNA was reverse transcribed (Superscript II Reverse Transcriptase Kit, Invitrogen) and amplified using the TaqMan Assay on Demand (Applied Biosystems) in a 25 μL reaction volume containing two unlabeled primers, a 6-carboxyfluorescien-labeled TaqMan MGB probe and the master mix. The amplified sequences were assessed using the ABI 7500 Prism Sequence Detection system machine. The results were expressed as mRNA levels normalized to 18S or GAPDH in each sample.

fibroblasts (CF, DF) [5] = assay: Proliferation of fibroblasts from control and diabetic wounds; format: cell-based, rat; settings: 1.5 μM
Method: Successful wound healing necessitates a series of tightly coordinated and overlapping processes including inflammation, new tissue formation and remodeling. Fibroblasts, in response to growth factors-released mostly by macrophages, migrate to the site of injury, where they proliferate and lay down the extracellular matrix (ECM). Consequently, this facilitates cell migration and tissue reconstruction. The effect of a therapeutic concentration of SFN-Cys (1.5 μM) was investigated on the proliferation of fibroblasts isolated from the granulation tissue of control and diabetic wounds. Similarly, the effect of SFN-Cys on cell migration in the in vitro wound closure assay was also considered. […] Accordingly, in vivo wound closure properties of SFN-Cys were examined using an excisional wound healing rat model. SFN-Cys containing Pluronic acid was topically applied to the wound at a dose of 1.5 μmol concentration and the wound closure area was digitally photographed and quantified. Digital photographs were obtained on day-0 through day-7 of post wounding. […] In this context, the wound healing time-course was faster in SFN-Cys containing Pluronic acid than the Pluronic acid alone (FIG. 3C). […] VEGF is a well-established enhancer of the proliferative phase of healing. […]

[6] = test system: neuronal, vascular, muscle, cardiac and stem cells; assay: Protection of cells from oxidative stress and inflammation-induced apoptotic cell death; format: cell-based; settings: at certain concentrations
Description: Thus, SNF-Cys may have a therapeutic benefit in the following conditions in addition to impaired wound healing: Sarcopenia, Fat grafting, Psoriasis, Nerve regeneration and diabetic neuropathy, Erectile dysfunction, and Cardiac fibrosis.

heme oxygenase = assay: Tissue mRNA expression of heme oxygenase after SFN-Cys diet; format: in vivo; settings: heart, kidney, liver and skin; SFN-Cys diet 1.5-2.5 μmol/mouse, 21 days
Method: as §3, §4
(§5) Total RNA from cells or frozen sponge implants was extracted using the Trizol reagent (Invitrogen), and the RNA integrity was verified by agarose gel electrophoresis. […] The amplified sequences were assessed using the ABI 7500 Prism Sequence Detection system machine. The results were expressed as mRNA levels normalized to 18S or GAPDH in each sample.

NQO1 = assay: Tissue mRNA expression of NQO1 after SFN-Cys diet; format: in vivo; settings: heart, kidney, liver and skin; SFN-Cys diet 1.5-2.5 μmol/mouse, 21 days
Method: as §3, §4, §5

Question: For `C[S+]([O-])CCCCNC(=S)SCC(N)C(=O)O` (stereo not shown) [SFN-Cys, Sulforaphane-Cysteine], which TGF-β expression [1] is on record?
Answer: inhibits

Question: And the “expression of LPS-induced IL-6 protein” value (IL-6)?
Answer: inhibited

Question: What about the body weight ([2]; SFN-Cys diet, in g (unit assumed)) of the same compound?
Answer: 22.7±3.2

Question: What about the “signs of adverse effect (body weight and behavior)” value ([2]; chronic SFN-Cys diet) of the same compound?
Answer: no obvious signs of adverse effect

Question: What about the “endothelial nitric oxide activity and expression” value (endothelial nitric oxide) of the same compound?
Answer: increased

Question: What about the “percentage of increase in cell migration, diabetics versus controls” value (fibroblasts (CF, DF) [3]) of the same compound?
Answer: greater in diabetics as compared to controls

Question: And the “cell migration (in vitro wound closure)” value (fibroblasts (CF, DF) [3]; CF and DF)?
Answer: enhanced cell migration not only in control but also in diabetic fibroblasts

Question: And the pain threshold [4]?
Answer: elevated

Question: What about the “LPS-induced TNF-α mRNA up-regulation” value (TNF-α) of the same compound?
Answer: significantly inhibited

Question: And the cell proliferation (fibroblasts (CF, DF) [5])?
Answer: enhanced cell proliferation in both CF and DF

Question: And the “protection from oxidative state and low-grade inflammation-induced apoptotic cell death” value [6]?
Answer: protects

Question: What about the “mRNA expression of heme oxygenase relative to control” value (heme oxygenase) of the same compound?
Answer: about 3 folds

Question: What about the “mRNA expression of NQO1 relative to control” value (NQO1) of the same compound?
Answer: about 3 folds
